The source of these data is US20100160351A1, “PHARMACEUTICAL COMPOSITIONS AND METHODS FOR TREATING HYPERURICEMIA AND RELATED DISORDERS” (NUON THERAPEUTICS, INC., priority 2008, published 2010).

For experiment [1], the system named is monosodium urate (MSU) crystal-induced air pouch inflammation. The experiment in a line: Air Pouch Model 1: MSU crystal air pouch, rodent model of gout. Particulars: for Average Exudate Volume / Average Plasma Extravasation, OD620 nm / Total WBC in Sample / WBC: +MSU, 4 h. Format: in vivo, male Sprague-Dawley rats. The procedure:
The objective of this study was to evaluate the anti-inflammatory affects of tranilast versus a clinically active treatment for gout, colchicine, as well as a clinically active non-steroidal antiinflammatory drug, indomethacin. This evaluation was carried out in male Sprague-Dawley rats in a rodent model of gout. The animals were injected subcutaneously with 20 ml of sterile air, followed three days later by a supplemental injection with 20 ml of sterile air. Six days after the initial sterile air injection, the rats were injected intravenously with Evan's Blue and pretreated for thirty minutes with either a subcutaneous injection of colchicine (1 mg/kg) or indomethacin (5 mg/kg) or oral administration with either 200 mg/kg or 400 mg/kg of tranilast. After the pretreatment period, the rats were injected with 150 mg of monosodium urate (MSU) crystals (10 mg·ml) into the air pouch. Four hours later, the air pouch was injected with 5 ml heparinized saline and the entire contents of the air pouch removed, recording the total volume. The air pouch contents were evaluated for plasma extravasation and total white blood cell (WBC) count.
On day 0 the rats were anesthetized in a biological cabinet, the nape of the neck was cleansed with 70% isopropanol followed by iodine tincture (VEDCO, lot L021976). Twenty ml sterile (0.22 μm, Fisher Scientific, Cat. 09-720-3, lot R5SN25683) air was injected subcutaneously using a 23 G×2 inch needle fixed to a 20 ml syringe. The rats were returned to routine housing. No adverse reactions were observed.
On day 3 the rats were anesthetized in a biological cabinet, the nape of the neck was cleansed with 70% isopropanol followed by iodine tincture (VEDCO, lot L021976). Twenty ml sterile (0.22 μm, Fisher Scientific, Cat. 09-720-3, lot R5SN25683) air was injected subcutaneously using a 23 G×2 inch needle fixed to a 20 ml syringe. The rats were returned to routine housing. No adverse reactions were observed.
On day 6 the rats were weighed (Mettler, Model PE3000, SN: F69474) and sorted into six treatment groups of ten animals each, based upon average weight. The animals were either dosed subcutaneously with 1 ml/kg colchicine or indomethacin, or orally with either 4 ml/kg or 8 ml/kg tranilast, or 8 ml/kg vehicle. Immediately after test material administration, the rats were intravenously injected with 2 ml/kg Evans Blue.
Thirty minutes after test material administration, the rats were anesthetized and five groups were injected into the air pouch with 15 ml MSU using an 18 G×1 inch needle fitted to a 20 ml syringe. The sixth group was injected with 15 ml saline. The rats were returned to their cages, no adverse affects were observed.
Four hours after MSU injection, the rats were anesthetized and 5 ml 10 U/ml heparinized saline was injected into the air pouch. The air pouch was gently massaged, the contents immediately removed using a 14 G×1 inch needle fitted to a 6 ml syringe, and the exudate volume recorded. An aliquot of the exudate was transferred to heparin-treated microtainer tubes (Becton Dickinson, Cat. 365958, lot 8093666, exp. June 09) for white blood cell (WBC) counting. The remainder of the exudate was centrifuged (Hermle Labrotechnik, Model Z200A, SN: 44060036), the supernatants removed and evaluated at OD620nm (Spectronic Unicam, Model 4000 1/4, SN: 3SGD003006) for plasma extravasation.

The test system of experiment [2] is serum uric acid (sUA) levels. In words: Study A3006GT: phase 2 crossover, sUA in healthy subjects with screening sUA of at least 7.1 mg/dL; tranilast, febuxostat, combination. The experiment is classed as in vivo, human. How it is done: Study A3006GT was a phase 2, randomized, double-blind, 3-period, 3-treatment crossover trial. The primary objective was to compare the effects of three treatments on serum uric acid (sUA) levels in healthy subjects with a screening sUA level of at least 7.1 mg/dL. The three treatments were: 300 mg QD tranilast and 40 mg QD febuxostat (C); 300 mg QD tranilast alone (T); 40 mg QD febuxostat alone (F).
The study was conducted in 23 subjects. […] With two exceptions, every subject provided data for all three treatments. Subject 1001 completed only the first two periods of the study (C and F). […] Therefore, the period 3 data for subject 1024 are excluded from the analyses presented here.
Two endpoints were considered: change from baseline to day 7 in sUA; and percent change from baseline to day 7 in sUA. For each endpoint, an analysis of variance (ANOVA) model for a three-period crossover trial was used. The model included effects for sequence, subject within sequence, treatment, and period. The sequence effect was tested using the subject within sequence mean square as the error term. Two pairwise comparisons between treatments were tested: C−F and C−T. In addition, the two-sided 95% confidence interval for each of these differences was computed.
For each subject for which results were available from all three treatments, the difference between the change for C and the sum of the changes for F and T was computed. Although the true magnitude of the difference between these two values is not known, a conservative null hypothesis is that this difference should be equally likely to be greater than or less than zero. The sign test and the Wilcoxon signed rank test were used to test this null hypothesis.
Using the change for each subject as the dependent variable, an analysis of variance (ANOVA) model for a three-period crossover trial was fit. This model included effects for sequence, subject within sequence, treatment, and period. Using the least squares estimates of the mean changes for each treatment, along with the 3×3 covariance matrix of these three estimates, the mean and SD of the difference between C and F+T was estimated, as follows.

Where [3] appears, read: 1 mg/kg colchicine subcutaneous, 30 min before MSU.
The mark [4] stands for this setting: Group 2: colchicine 1 mg/kg subcutaneous.
[5] abbreviates: end of 1-week treatment (day 7), C: 300 mg QD tranilast + 40 mg QD febuxostat, T: 300 mg QD, F: 40 mg QD.
Where [6] appears, read: individual subjects, per study period, end of the 1-week treatment period.
Where [7] appears, read: 5 mg/kg indomethacin subcutaneous, 30 min before MSU.
[8] abbreviates: Group 3: indomethacin 5 mg/kg subcutaneous.

The structures appear in SMILES notation. Values joined by “and” are separate entries in the source; they are usually repeats but may differ in a detail not shown here. Equal values may be shown once.

Consider `COc1cc2c(c(OC)c1OC)-c1ccc(OC)c(=O)cc1[C@@H](NC(C)=O)CC2` [Colchicine, N-[1,2,3,10-Tetramethoxy-9-oxo-5,6,7,9-tetrahydrobenzo[a]heptalen-7(S)-yl]acetamide], for which, in experiment [1] (setting [3]), the “inhibition of plasma extravasation” value was 52% and the “reduction in inflammatory cell infiltration” value worked out at 88%. Also, in experiment [1] (setting [4]), the “Average Exudate Volume” value was 3.9 mL; the “Average Plasma Extravasation, OD620 nm” value was 0.776; the “Total WBC in Sample” value was 35131400; the WBC is recorded as 9215000 cells/ml.
Regarding `Cc1nc(-c2ccc(OCC(C)C)c(C#N)c2)sc1C(=O)O` [F], in experiment [2] (setting [5]), the “sUA Change from Baseline, Max” value was -0.70 mg/dL; the “sUA Change from Baseline, Mean” value is -2.75 mg/dL; the “sUA Change from Baseline, Median” value was -2.85 mg/dL; the “sUA Change from Baseline, Min” value is -3.80 mg/dL. Besides, in experiment [2] (setting [5]), the “sUA Percent Change from Baseline, Max” value is −9.21%; the “sUA Percent Change from Baseline, Mean” value is listed as −35.32%; the “sUA Percent Change from Baseline, Median” value is reported as −36.86%; the “sUA Percent Change from Baseline, Min” value was −48.68%. Besides, in experiment [2] (setting [6]), the “sUA Change from baseline” value was −0.7 mg/dL and −2.9 mg/dL (2×) and −2.1 mg/dL (2×) and −1.2 mg/dL and −1.8 mg/dL and −2.8 mg/dL and −3.5 mg/dL (2×) and −2.4 mg/dL and −3.7 mg/dL (2×) and −2.7 mg/dL and −3.6 mg/dL (2×) and −3.3 mg/dL and −3.8 mg/dL and −2.2 mg/dL and −3.1 mg/dL and −2.3 mg/dL and −2.6 mg/dL; the “sUA Percent Change from baseline” value was −9.21% and −35.80% and −28.00% and −16.90% and −22.78% and −41.43% and −43.08% and −40.23% and −35.82% and −36.63% and −41.54% and −46.75% and −28.38% and −37.08% and −43.18% and −31.43% and −40.70% and −39.13% and −48.68% and −42.47% and −35.38% and −32.50%.
Turning to `COc1ccc2c(c1)c(CC(=O)O)c(C)n2C(=O)c1ccc(Cl)cc1` [Indomethacin], in experiment [1] (setting [7]), the “reduction in inflammatory cell infiltration into the air pouch” value is 94% and the “reduction of plasma extravasation” value is on record as 69%. In experiment [1] (setting [8]), the “Average Exudate Volume” value turned out to be 4.9 mL; the “Average Plasma Extravasation, OD620 nm” value was 0.505; the “Total WBC in Sample” value is listed as 18520000; the WBC is 4160000 cells/ml.
